Results from US20260297164A1, “ANTI-FIBROTIC PEPTIDES AND USES THEREOF” (Deackt, Inc., priority 2021, published 2026).

Assays:
[1] = test system: autophagy in lung fibroblasts; assay: TGF-β1 effect on autophagy (LC3, p62) in lung fibroblasts; assay type: cell-based, mouse; settings: TGF-β1 10 ng/ml, 24 h
Procedure: (§1) FIG. 3. CD148 deficiency enhances PI3K/Akt/mTOR signaling which results in low autophagy, high p62 expression in lung fibroblasts. (A) Mouse lung fibroblasts were isolated from Ptprj^fl/fl Col1a2^Cre-ER(T)+/0 mice (Ptprj−/−) and Col1a2^Cre-ER(T)+/0 mice (WT) and then treated with 4-OHT (1 μM) for 24 h. After 4-OHT treatment, cells were exposed to TGF-β1 (10 ng/ml) for 24 h. After stimulation, cells were harvested, and the expression of p-p85 (Tyr458), p-Akt (Ser473), pmTOR (Ser2448), p-p70 S6 kinase (Thr389), p-S6 ribosomal protein (Ser235/236) and CD148 (n=4 for each condition) in lysates was determined by Western immunoblotting and corresponding densitometry (ImageJ software). Data were normalized to corresponding dephospho-forms or GAPDH. (B) WT and Ptprj−/− cells were stimulated with TGF-β1 (10 ng/ml) for 24 h. Then cells were lysed and LC3-I and -II and p62 were measured by western blot (n=4). […] Then, autophagy flux was measured by LC3-II accumulation in the absence or presence of lysosomal acidification inhibitor chloroquine (25 μM) at 2, 4 and 6 h (n=4). […] LC3 puncta positive cells were quantified using ImageJ (D). […]
(§2) Polyacrylamide gel electrophoresis and immunoblotting were performed according to standard methods. […] The signals were detected by ECL (Thermo Fisher Scientific, Waltham, MA). […]

[2] = test system: PI3K/Akt/mTOR signaling in lung fibroblasts; assay: TGF-β1 stimulation of PI3K/Akt/mTOR signaling in lung fibroblasts; assay type: cell-based, mouse; settings: TGF-β1 10 ng/ml, 24 h
Procedure: as §1, §2

Substance: TGF-β1
- autophagy (LC3-II relative to LC3-I) [1]: downregulated autophagy
- p62 expression [1]: increased p62 expression
- phosphorylation of PI3K (p85 subunit), Akt, mTOR and mTOR-related signaling proteins (p70 S6-kinase and S6) [2]: upregulated
